According to patent publication US20230372227A1, “PRESERVATIVE COMPRISING POLYLYSINE AND CAPRYLYL GLYCERYL ETHER FOR EXTERNAL-USE SKIN FORMULATIONS AND COSMETICS COMPOSITION COMPRISING SAME” (ACTIVON CO., LTD., priority 2020, published 2023):

Experiments:
Assay in all cases: Minimum inhibitory concentration (MIC) of preservatives
Type in all cases: cell-based
[1] = system: Staphylococcus aureus (ATCC 6538); conditions: Experimental Example 1; growth inhibited by about 95% or more; about 10^6 CFU/ml; about 32° C., 24 to 48 hours
Description: (§1) In this experimental example, in order to evaluate the antimicrobial effect of the preservatives for skin external preparations, prepared in Examples 1 to 5, the minimum inhibitory concentrations (MICs) of the preservative of each Example against bacteria or fungi, including Escherichia coli (ATCC 8739), Pseudomonas aeruginosa (ATCC 9027), Staphylococcus aureus (ATCC 6538), Candida albicans (ATCC 10231), and Aspergillus brasiliensis (ATCC 16404), were measured.
(§2) Specifically, each of the preservatives for skin external preparations, prepared in Examples 1 to 5, was diluted to about 13% to about 25%, and each of the dilutions was further serially diluted 1:1 (10 times). Thereby, samples of various concentrations (about 0.05% to about 10%) for each of the preservatives for skin external preparations, prepared in Examples 1 to 5, were prepared. Each of the obtained samples was added to tryptic soy broth (TSB) medium or potato dextrose agar (PDA) medium. In about 10 ml of the medium to which each sample was added, each type of bacteria or fungi described above was seeded so that the final concentration of the bacteria or fungi was about 10^6 CFU/ml, and then the bacteria were cultured at about 32° C. for about 24 hours to 48 hours, and fungi were cultured at about 25° C. for about 24 hours to 48 hours. Thereafter, the minimum inhibitory concentration (MIC) of each sample capable of inhibiting the growth of the bacteria or fungi by about 95% or more was determined by observing the state of the bacterial or fungal culture medium. The growth of normal bacteria in a medium to which no sample was added was measured and used as a positive control, and the MIC for the growth of bacteria or fungi in a medium to which polyepsilon-lysine, caprylyl glyceryl ether, or propylene glycol was added alone was measured and used as a control.
(§3) In this experimental example, in order to evaluate the antimicrobial effect of a preservative for a skin external application comprising polylysine, caprylyl glyceryl ether and a glycol compound at a weight ratio of 0.1 to 5:10 to 30:65 to 75, the minimum inhibitory concentrations (MICs) of the preservative of each Example against bacteria or fungi, including Escherichia coli (ATCC 8739), Pseudomonas aeruginosa (ATCC 9027), Staphylococcus aureus (ATCC 6538), Candida albicans (ATCC 10231), and Aspergillus brasiliensis (ATCC 16404), were measured. Polyepsilon-lysine was used as the polylysine, and propylene glycol, butylene glycol, or pentylene glycol was used as the glycol compound.
(§4) Each of the preservatives for skin external preparations was diluted to about 10%, and each of the dilutions was further serially diluted 1:1 ([…]). Thereby, samples of various concentrations (about 0.01% to about 10%) for each of the preservatives for skin external preparations were prepared. Each of the obtained samples was added to tryptic soy broth (TSB) medium or potato dextrose agar (PDA) medium. In about 10 ml of the medium to which each sample was added, each type of bacteria or fungi described above was seeded so that the final concentration of the bacteria or fungi was about 10^6 CFU/ml, and then the bacteria were cultured at about 32° C. for about 24 hours to 48 hours, and fungi were cultured at about 25° C. for about 24 hours to 48 hours. […] The growth of normal bacteria in a medium to which no sample was added was measured and used as a positive control.

[2] = system: Aspergillus brasiliensis (ATCC 16404); conditions: Experimental Example 1; growth inhibited by about 95% or more; about 10^6 CFU/ml; about 25° C., 24 to 48 hours
Description: as §1, §2, §3, §4

[3] = system: Escherichia coli (ATCC 8739); conditions: Experimental Example 1; growth inhibited by about 95% or more; about 10^6 CFU/ml; about 32° C., 24 to 48 hours
Description: as §1, §2, §3, §4

[4] = system: Pseudomonas aeruginosa (ATCC 9027); conditions: Experimental Example 1; growth inhibited by about 95% or more; about 10^6 CFU/ml; about 32° C., 24 to 48 hours
Description: as §1, §2, §3, §4

[5] = system: Candida albicans (ATCC 10231); conditions: Experimental Example 1; growth inhibited by about 95% or more; about 10^6 CFU/ml; about 25° C., 24 to 48 hours
Description: as §1, §2, §3, §4

CC(O)CO (centres unmarked) [Propylene glycol]
>10 %, w/w: MIC (%, w/w) of sample S. aureus [1] | MIC (%, w/w) of sample A. brasiliensis [2] | MIC (%, w/w) of sample E. coli [3] | MIC (%, w/w) of sample P. aeruginosa [4] | MIC (%, w/w) of sample C. albicans [5]
